The values below come from ChEMBL document CHEMBL5303573, “Mapping human microbiome drug metabolism by gut bacteria and their genes” (Nature, 2019).

For the first series the following is noted: bacteroides eggerthii, 12 h, 2 µM.
Description: The drug is tested on Bacteroides eggerthii strain: DSM20697 for biotransformation. The drug concentrations were measured before and after a 12-h incubation by liquid-chromatography-coupled mass spectrometry (LC–MS)
Regarding `COc1ccccc1N1CCN(CC(O)COc2cccc3ccccc23)CC1` (stereo not drawn) [NAFTOPIDIL], the “Bacterial Biotransformation” value was “Compound NOT metabolized”.

For `Cc1ccccc1N1C(=O)c2cc(S(N)(=O)=O)c(Cl)cc2NC1C` (stereo not drawn) [METOLAZONE], the “Bacterial Biotransformation” value was “Compound NOT metabolized”.

For the molecule `COC(=O)C1=C(C)NC(C)=C(C(=O)OC(C)C)C1c1cccc2nonc12` (stereo not drawn) [ISRADIPINE], the “Bacterial Biotransformation” value is reported as “Compound NOT metabolized”.

`CCOC(=O)[C@H](CCc1ccccc1)N[C@@H](C)C(=O)N1CCC[C@H]1C(=O)O.O=C(O)/C=C\C(=O)O` [ENALAPRIL MALEATE]: the “Bacterial Biotransformation” value is “Compound NOT metabolized”.

`CC(=O)O[C@]1(C(C)=O)CC[C@H]2[C@@H]3C=C(C)C4=CC(=O)CC[C@]4(C)[C@H]3CC[C@@]21C` [MEGESTROL ACETATE]: the “Bacterial Biotransformation” value is reported as “Compound metabolized”.

As to `CN1CCC(=C2c3ccccc3CC(=O)c3sccc32)CC1.O=C(O)/C=C/C(=O)O` [KETOTIFEN FUMARATE], the “Bacterial Biotransformation” value is recorded as “Compound NOT metabolized”.

On to `Cc1cc2c(s1)Nc1ccccc1N=C2N1CCN(C)CC1` [OLANZAPINE], for which the “Bacterial Biotransformation” value is reported as “Compound NOT metabolized”.

On to `CC(C)(C)NC(=O)[C@H]1CC[C@H]2[C@@H]3CC[C@H]4NC(=O)C=C[C@]4(C)[C@H]3CC[C@]12C` [FINASTERIDE], for which the “Bacterial Biotransformation” value is listed as “Compound metabolized”.

For a further series the following is noted: bacteroides fragilis, 12 h, 2 µM.
Description: The drug is tested on Bacteroides fragilis strain: DS-208 for biotransformation. The drug concentrations were measured before and after a 12-h incubation by liquid-chromatography-coupled mass spectrometry (LC–MS)
With `CN(C)C(=O)Oc1cccc([N+](C)(C)C)c1.[Br-]` [NEOSTIGMINE BROMIDE], the “Bacterial Biotransformation” value is given as “Compound metabolized”.

For `COc1ccccc1N1CCN(CC(O)COc2cccc3ccccc23)CC1` (stereo not drawn) [NAFTOPIDIL], the “Bacterial Biotransformation” value is given as “Compound NOT metabolized”.

Consider `Cc1ccccc1N1C(=O)c2cc(S(N)(=O)=O)c(Cl)cc2NC1C` (stereo not drawn) [METOLAZONE], for which the “Bacterial Biotransformation” value was “Compound NOT metabolized”.

As for `COC(=O)C1=C(C)NC(C)=C(C(=O)OC(C)C)C1c1cccc2nonc12` (stereo not drawn) [ISRADIPINE], the “Bacterial Biotransformation” value is “Compound NOT metabolized”.

Consider `CCOC(=O)[C@H](CCc1ccccc1)N[C@@H](C)C(=O)N1CCC[C@H]1C(=O)O.O=C(O)/C=C\C(=O)O` [ENALAPRIL MALEATE], for which the “Bacterial Biotransformation” value was “Compound NOT metabolized”.

Turning to `CC(=O)O[C@]1(C(C)=O)CC[C@H]2[C@@H]3C=C(C)C4=CC(=O)CC[C@]4(C)[C@H]3CC[C@@]21C` [MEGESTROL ACETATE], the “Bacterial Biotransformation” value was “Compound metabolized”.

As to `CN1CCC(=C2c3ccccc3CC(=O)c3sccc32)CC1.O=C(O)/C=C/C(=O)O` [KETOTIFEN FUMARATE], the “Bacterial Biotransformation” value was “Compound NOT metabolized”.

Regarding `Cc1cc2c(s1)Nc1ccccc1N=C2N1CCN(C)CC1` [OLANZAPINE], the “Bacterial Biotransformation” value is listed as “Compound NOT metabolized”.

Regarding `CC(C)(C)NC(=O)[C@H]1CC[C@H]2[C@@H]3CC[C@H]4NC(=O)C=C[C@]4(C)[C@H]3CC[C@]12C` [FINASTERIDE], the “Bacterial Biotransformation” value is on record as “Compound metabolized”.

Another series can be described thus: The drug is tested on Eggerthella lenta strain: ATCC25559 for biotransformation. The drug concentrations were measured before and after a 12-h incubation by liquid-chromatography-coupled mass spectrometry (LC–MS). The following applies: 2 µM.
Take `CN(C)C(=O)Oc1cccc([N+](C)(C)C)c1.[Br-]` [NEOSTIGMINE BROMIDE]: the “Bacterial Biotransformation” value is reported as “Compound NOT metabolized”.

As to `COc1ccccc1N1CCN(CC(O)COc2cccc3ccccc23)CC1` (stereo not drawn) [NAFTOPIDIL], the “Bacterial Biotransformation” value is on record as “Compound NOT metabolized”.

With `COC(=O)C1=C(C)NC(C)=C(C(=O)OC(C)C)C1c1cccc2nonc12` (stereo not drawn) [ISRADIPINE], the “Bacterial Biotransformation” value is on record as “Compound NOT metabolized”.

`CC(=O)O[C@]1(C(C)=O)CC[C@H]2[C@@H]3C=C(C)C4=CC(=O)CC[C@]4(C)[C@H]3CC[C@@]21C` [MEGESTROL ACETATE]: the “Bacterial Biotransformation” value is reported as “Compound NOT metabolized”.

As for `CN1CCC(=C2c3ccccc3CC(=O)c3sccc32)CC1.O=C(O)/C=C/C(=O)O` [KETOTIFEN FUMARATE], the “Bacterial Biotransformation” value was “Compound NOT metabolized”.

The conditions of the next series: victivallis vadensis, 12 h, 2 µM.
Description: The drug is tested on Victivallis vadensis strain: ATCC BAA-548 for biotransformation. The drug concentrations were measured before and after a 12-h incubation by liquid-chromatography-coupled mass spectrometry (LC–MS)
Regarding `Cc1ccccc1N1C(=O)c2cc(S(N)(=O)=O)c(Cl)cc2NC1C` (stereo not drawn) [METOLAZONE], the “Bacterial Biotransformation” value is “Compound NOT metabolized”.

Turning to `CCOC(=O)[C@H](CCc1ccccc1)N[C@@H](C)C(=O)N1CCC[C@H]1C(=O)O.O=C(O)/C=C\C(=O)O` [ENALAPRIL MALEATE], the “Bacterial Biotransformation” value is reported as “Compound NOT metabolized”.

Turning to `Cc1cc2c(s1)Nc1ccccc1N=C2N1CCN(C)CC1` [OLANZAPINE], the “Bacterial Biotransformation” value is given as “Compound NOT metabolized”.

For the molecule `CC(C)(C)NC(=O)[C@H]1CC[C@H]2[C@@H]3CC[C@H]4NC(=O)C=C[C@]4(C)[C@H]3CC[C@]12C` [FINASTERIDE], the “Bacterial Biotransformation” value is listed as “Compound NOT metabolized”.

A further series can be described thus: The drug is tested on Anaerococcus hydrogenalis strain: DSM7454 for biotransformation. The drug concentrations were measured before and after a 12-h incubation by liquid-chromatography-coupled mass spectrometry (LC–MS). The following applies: 2 µM.
Turning to `CN(C)C(=O)Oc1cccc([N+](C)(C)C)c1.[Br-]` [NEOSTIGMINE BROMIDE], the “Bacterial Biotransformation” value was “Compound NOT metabolized”.

Turning to `COc1ccccc1N1CCN(CC(O)COc2cccc3ccccc23)CC1` (stereo not drawn) [NAFTOPIDIL], the “Bacterial Biotransformation” value is recorded as “Compound NOT metabolized”.

Regarding `CCOC(=O)[C@H](CCc1ccccc1)N[C@@H](C)C(=O)N1CCC[C@H]1C(=O)O.O=C(O)/C=C\C(=O)O` [ENALAPRIL MALEATE], the “Bacterial Biotransformation” value is on record as “Compound NOT metabolized”.

On to `CC(=O)O[C@]1(C(C)=O)CC[C@H]2[C@@H]3C=C(C)C4=CC(=O)CC[C@]4(C)[C@H]3CC[C@@]21C` [MEGESTROL ACETATE], for which the “Bacterial Biotransformation” value is “Compound NOT metabolized”.

Consider `CN1CCC(=C2c3ccccc3CC(=O)c3sccc32)CC1.O=C(O)/C=C/C(=O)O` [KETOTIFEN FUMARATE], for which the “Bacterial Biotransformation” value is “Compound NOT metabolized”.

On to `Cc1cc2c(s1)Nc1ccccc1N=C2N1CCN(C)CC1` [OLANZAPINE], for which the “Bacterial Biotransformation” value was “Compound NOT metabolized”.

In the case of `CC(C)(C)NC(=O)[C@H]1CC[C@H]2[C@@H]3CC[C@H]4NC(=O)C=C[C@]4(C)[C@H]3CC[C@]12C` [FINASTERIDE], the “Bacterial Biotransformation” value is “Compound NOT metabolized”.

For another series the following is noted: bacteroides thetaiotaomicron, 12 h, 2 µM.
Description: The drug is tested on Bacteroides thetaiotaomicron strain: 7330 for biotransformation. The drug concentrations were measured before and after a 12-h incubation by liquid-chromatography-coupled mass spectrometry (LC–MS)
Take `CN(C)C(=O)Oc1cccc([N+](C)(C)C)c1.[Br-]` [NEOSTIGMINE BROMIDE]: the “Bacterial Biotransformation” value is given as “Compound metabolized”.

As to `COc1ccccc1N1CCN(CC(O)COc2cccc3ccccc23)CC1` (stereo not drawn) [NAFTOPIDIL], the “Bacterial Biotransformation” value is recorded as “Compound NOT metabolized”.

As to `Cc1ccccc1N1C(=O)c2cc(S(N)(=O)=O)c(Cl)cc2NC1C` (stereo not drawn) [METOLAZONE], the “Bacterial Biotransformation” value is on record as “Compound NOT metabolized”.

Regarding `COC(=O)C1=C(C)NC(C)=C(C(=O)OC(C)C)C1c1cccc2nonc12` (stereo not drawn) [ISRADIPINE], the “Bacterial Biotransformation” value is “Compound NOT metabolized”.

Regarding `CC(=O)O[C@]1(C(C)=O)CC[C@H]2[C@@H]3C=C(C)C4=CC(=O)CC[C@]4(C)[C@H]3CC[C@@]21C` [MEGESTROL ACETATE], the “Bacterial Biotransformation” value is “Compound metabolized”.

Consider `CN1CCC(=C2c3ccccc3CC(=O)c3sccc32)CC1.O=C(O)/C=C/C(=O)O` [KETOTIFEN FUMARATE], for which the “Bacterial Biotransformation” value was “Compound NOT metabolized”.

Take `Cc1cc2c(s1)Nc1ccccc1N=C2N1CCN(C)CC1` [OLANZAPINE]: the “Bacterial Biotransformation” value was “Compound NOT metabolized”.

The next series can be described thus: The drug is tested on Bacteroides uniformis strain: ATCC8492 for biotransformation. The drug concentrations were measured before and after a 12-h incubation by liquid-chromatography-coupled mass spectrometry (LC–MS). The following applies: 2 µM.
As to `CN(C)C(=O)Oc1cccc([N+](C)(C)C)c1.[Br-]` [NEOSTIGMINE BROMIDE], the “Bacterial Biotransformation” value is listed as “Compound metabolized”.

`COc1ccccc1N1CCN(CC(O)COc2cccc3ccccc23)CC1` (stereo not drawn) [NAFTOPIDIL]: the “Bacterial Biotransformation” value is reported as “Compound NOT metabolized”.

In the case of `Cc1ccccc1N1C(=O)c2cc(S(N)(=O)=O)c(Cl)cc2NC1C` (stereo not drawn) [METOLAZONE], the “Bacterial Biotransformation” value is on record as “Compound NOT metabolized”.

As for `COC(=O)C1=C(C)NC(C)=C(C(=O)OC(C)C)C1c1cccc2nonc12` (stereo not drawn) [ISRADIPINE], the “Bacterial Biotransformation” value was “Compound NOT metabolized”.

As for `CCOC(=O)[C@H](CCc1ccccc1)N[C@@H](C)C(=O)N1CCC[C@H]1C(=O)O.O=C(O)/C=C\C(=O)O` [ENALAPRIL MALEATE], the “Bacterial Biotransformation” value is “Compound NOT metabolized”.

For the molecule `CC(=O)O[C@]1(C(C)=O)CC[C@H]2[C@@H]3C=C(C)C4=CC(=O)CC[C@]4(C)[C@H]3CC[C@@]21C` [MEGESTROL ACETATE], the “Bacterial Biotransformation” value is “Compound metabolized”.

As to `CN1CCC(=C2c3ccccc3CC(=O)c3sccc32)CC1.O=C(O)/C=C/C(=O)O` [KETOTIFEN FUMARATE], the “Bacterial Biotransformation” value is recorded as “Compound NOT metabolized”.

As for `CC(C)(C)NC(=O)[C@H]1CC[C@H]2[C@@H]3CC[C@H]4NC(=O)C=C[C@]4(C)[C@H]3CC[C@]12C` [FINASTERIDE], the “Bacterial Biotransformation” value is “Compound metabolized”.
